Results published in patent US12528761B2, “Thyromimetics” (Autobahn Therapeutics, Inc., priority 2020, dated 2026).
Like-named read-outs stand apart in the source and are kept apart here.

Legend:
TRβ = biological target: T1, TRβ (Homo sapiens, UniProt P10828); experiment: TR reporter-gene assay (Gal4 DBD hybrid, luciferase), TRβ; type: cell-based; details: for T3-SI (selectivity index, EC50 (TRα)/EC50 (TRβ)): class symbols
T1 construct: expressed in transfected cells; host or cells: HEK293
T1 sequence (P10828 217-461 limits assumed): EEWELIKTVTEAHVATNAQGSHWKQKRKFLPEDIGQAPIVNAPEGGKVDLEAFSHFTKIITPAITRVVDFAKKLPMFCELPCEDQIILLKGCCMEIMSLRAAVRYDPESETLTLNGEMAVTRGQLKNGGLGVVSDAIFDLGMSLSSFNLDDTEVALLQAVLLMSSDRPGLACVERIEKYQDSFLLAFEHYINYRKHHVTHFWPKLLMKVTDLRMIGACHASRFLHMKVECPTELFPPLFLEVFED
Description: (§1) Compounds were tested for thyroid-hormone receptor activity using TR reporter-gene assays. Reporter cells used in the assays express a TR-receptor hybrid (either TRα or TRβ) in which the native N-terminal DNA binding domain (DBD) has been replaced with that of the yeast Gal4 DBD. The reporter gene, firefly luciferase, is functionally linked to the Gal4 upstream activation sequence (UAS). Both cell lines were derived from human embryonic kidney (HEK293).
(§2) Step 1: A suspension of reporter cells was prepared in cell recovery medium containing 10% charcoal-stripped FBS, and dispensed into assay plates. The plates were pre-incubated for 6 hours in a cell culture incubator (37° C./5% CO2/85% humidity).
(§3) These intermediate stocks were subsequently diluted directly into compound screening medium containing 10% charcoal-stripped FBS to generate “2×-concentration” treatment media (containing 0.2, 0.4 or 0.8% DMSO).
(§4) Step 3: At the end of the pre-incubation period, culture media were discarded from the assay plates, and all wells received 100 μl of compound screening medium. 100 μl of each of the previously prepared “2×-concentration” treatment media were dispensed into duplicate assay wells, thereby achieving the desired final treatment concentrations. The final concentration of DMSO in all assay wells was 0.1, 0.2 or 0.4%. Assay plates were incubated for 24 hr in a cell culture incubator (37° C./5% CO2/85% humidity).
(§5) Step 4: At the 24 h assay endpoint, treatment media were discarded and 100 µl/well of luciferase detection reagent was added. Relative luminometer units (RLUs) were quantified from each assay well.

TRα = biological target: T2, TRα (Homo sapiens, UniProt P10827); experiment: TR reporter-gene assay (Gal4 DBD hybrid, luciferase), TRα; type: cell-based
T2 construct: expressed in transfected cells; host or cells: HEK293
T2 sequence (P10827 1-410 isoform P10827-2): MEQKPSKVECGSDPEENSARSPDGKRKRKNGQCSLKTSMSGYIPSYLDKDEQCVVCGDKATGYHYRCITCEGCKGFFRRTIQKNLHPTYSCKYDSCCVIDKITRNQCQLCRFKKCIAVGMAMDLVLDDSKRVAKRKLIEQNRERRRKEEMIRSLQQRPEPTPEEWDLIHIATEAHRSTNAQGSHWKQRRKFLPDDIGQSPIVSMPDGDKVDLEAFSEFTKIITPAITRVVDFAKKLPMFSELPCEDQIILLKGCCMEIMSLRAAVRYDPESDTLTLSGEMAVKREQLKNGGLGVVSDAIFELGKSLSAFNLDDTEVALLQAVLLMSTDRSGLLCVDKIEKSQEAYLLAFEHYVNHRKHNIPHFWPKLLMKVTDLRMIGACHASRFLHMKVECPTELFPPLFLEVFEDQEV
Description: as §1, §2, §3, §4, §5

[1] = HEK293-derived reporter cells, 24 hr treatment, read-out: TRβ EC50
[2] = HEK293-derived reporter cells, 24 hr treatment, read-out: TRα EC50

Row | EC50 (TRβ; [1]) | T3-SI (selectivity index, EC50 (TRα)/EC50 (TRβ)) (TRβ) | EC50 (TRα; [2]) | Compound | EC50 (TRβ) | EC50 (TRα)
1 | 10 to 100 nM | + (T3-SI ≤ 3×) | 10 to 100 nM | CC(C)c1c(O)ccc(Cc2c(Cl)cc(OCCCCC(=O)O)cc2Cl)c1F [Compound 54, 5-(3,5-dichloro-4-(2-fluoro-4-hydroxy-3-isopropylbenzyl)phenoxy)pentanoic acid] | – | –
2 | > 1000 nM | + (T3-SI ≤ 3×) | 100 to 1000 nM | CC(C)c1cc(Cc2c(Cl)cc(/C=C\C(=O)O)cc2Cl)ccc1O [Compound 100, (Z)-3-(3,5-dichloro-4-(4-hydroxy-3-isopropylbenzyl)phenyl)acrylic acid] | – | –
3 | 100 to 1000 nM | + (T3-SI ≤ 3×) | 100 to 1000 nM | CC(C)c1cc(Cc2c(Cl)cc(CNCC(=O)O)cc2Cl)ccc1O [Compound 30, (3,5-dichloro-4-(4-hydroxy-3-isopropylbenzyl)benzyl)glycine] | – | –
4 | < 10 nM | ++ (3× < T3-SI ≤ 30×) | < 10 nM | Cc1c(F)c(NCC(=O)O)cc(Cl)c1Cc1ccc(O)c(C(C)C)c1F [Compound 133, (5-chloro-2-fluoro-4-(2-fluoro-4-hydroxy-3-isopropylbenzyl)-3-methylphenyl)glycine] | – | –
5 | 100 to 1000 nM | ++ (3× < T3-SI ≤ 30×) | 100 to 1000 nM | CC(C)c1cc(Cc2c(Cl)cc(SCC(=O)O)cc2Cl)ccc1O [Compound 91, 2-((3,5-dichloro-4-(4-hydroxy-3-isopropylbenzyl)phenyl)thio)acetic acid] | – | –
6 | > 1000 nM | + (T3-SI ≤ 3×) | > 1000 nM | CC(C)c1cc(Cc2c(Cl)cc(N(C)CC(=O)O)cc2Cl)ccc1O [Compound 148, N-(3,5-dichloro-4-(4-hydroxy-3-isopropylbenzyl)phenyl)-N-methylglycine] | – | –
7 | < 10 nM | ++ (3× < T3-SI ≤ 30×) | 10 to 100 nM | CC(c1ccc(F)cc1)c1c(O)ccc(Cc2c(Cl)cc(NCC(=O)O)cc2Cl)c1F (stereo not drawn) [Compound 50, (3,5-dichloro-4-(2-fluoro-3-(1-(4-fluorophenyl)ethyl)-4-hydroxybenzyl)phenyl) glycine] | – | –
8 | > 1000 nM | ++ (3× < T3-SI ≤ 30×) | > 1000 nM | CC(C)c1c(O)ccc(Cc2c(Cl)cc(C(=O)O)cc2Cl)c1F [Compound 61, 3,5-dichloro-4-(2-fluoro-4-hydroxy-3-isopropylbenzyl)benzoic acid] | – | –
9 | < 10 nM | ++ (3× < T3-SI ≤ 30×) | < 10 nM | C=C(Cc1cc(Cl)c(Cc2ccc(O)c(C(C)C)c2F)c(Cl)c1)C(=O)O [Compound 201, 2-(3,5-dichloro-4-(2-fluoro-4-hydroxy-3-isopropylbenzyl)benzyl)acrylic acid] | – | –
10 | 100 to 1000 nM | ++ (3× < T3-SI ≤ 30×) | 100 to 1000 nM | CC(C)c1c(O)ccc(Cc2c(Cl)cc(C(C)C(=O)O)cc2Cl)c1F (stereo not drawn) [Compound 60, 2-(3,5-dichloro-4-(2-fluoro-4-hydroxy-3-isopropylbenzyl)phenyl)propanoic acid] | – | –
11 | 10 to 100 nM | ++ (3× < T3-SI ≤ 30×) | 10 to 100 nM | Cc1cc(CCC(=O)O)cc(Cl)c1Cc1ccc(O)c(C(C)C)c1F [Compound 249, 3-(3-chloro-4-(2-fluoro-4-hydroxy-3-isopropylbenzyl)-5-methylphenyl)propanoic acid] | – | –
12 | 100 to 1000 nM | ++ (3× < T3-SI ≤ 30×) | 100 to 1000 nM | CC(C)c1cc(Cc2c(Cl)cc(CC(=O)O)cc2Cl)ccc1O [Compound 6, 2-(3,5-dichloro-4-(4-hydroxy-3-isopropylbenzyl)phenyl)acetic acid] | – | –
13 | 10 to 100 nM | ++ (3× < T3-SI ≤ 30×) | 10 to 100 nM | CC(C)c1cc(Cc2c(Cl)cc(SCC(=O)O)c(F)c2Cl)ccc1O [Compound 204, 2-((3,5-dichloro-2-fluoro-4-(4-hydroxy-3-isopropylbenzyl)phenyl)thio)acetic acid] | – | –
14 | < 10 nM | ++ (3× < T3-SI ≤ 30×) | 10 to 100 nM | CC(c1ccc(F)cc1)c1c(O)ccc(Cc2c(Cl)cc(CC(=O)O)cc2Cl)c1F (stereo not drawn) [Compound 37, 2-(3,5-dichloro-4-(2-fluoro-3-(1-(4-fluorophenyl)ethyl)-4-hydroxybenzyl)phenyl)acetic acid] | – | –
15 | 100 to 1000 nM | + (T3-SI ≤ 3×) | 100 to 1000 nM | CNC(=O)C(F)(F)Oc1cc(Cl)c(Cc2ccc(O)c(C(C)C)c2)c(Cl)c1 [Compound 84, 2-(3,5-dichloro-4-(4-hydroxy-3-isopropylbenzyl)phenoxy)-2,2-difluoro-N-methylacetamide] | – | –
16 | 100 to 1000 nM | ++ (3× < T3-SI ≤ 30×) | 100 to 1000 nM | Cc1c(F)c(CSCC(=O)O)cc(Cl)c1Cc1ccc(O)c(C(C)C)c1 [Compound 226, 2-((5-chloro-2-fluoro-4-(4-hydroxy-3-isopropylbenzyl)-3-methylbenzyl)thio)acetic acid] | – | –
17 | < 10 nM | ++ (3× < T3-SI ≤ 30×) | < 10 nM | CC(C)c1c(O)ccc(Cc2c(Cl)cc(NCC(=O)O)c(F)c2Cl)c1F [Compound 78, (3,5-dichloro-2-fluoro-4-(2-fluoro-4-hydroxy-3-isopropylbenzyl)phenyl)glycine] | – | –
18 | > 1000 nM | ++ (3× < T3-SI ≤ 30×) | > 1000 nM | CC(C)c1cc(Cc2c(Cl)cc(CS(=O)(=O)CC(=O)O)cc2Cl)ccc1O [Compound 97, 2-((3,5-dichloro-4-(4-hydroxy-3-isopropylbenzyl)benzyl)sulfonyl)acetic acid] | – | –
19 | > 1000 nM | ++ (3× < T3-SI ≤ 30×) | > 1000 nM | CC(C)c1cc(Cc2c(Cl)cc(S(=O)(=O)CC(=O)O)cc2Cl)ccc1O [Compound 93, 2-((3,5-dichloro-4-(4-hydroxy-3-isopropylbenzyl)phenyl)sulfonyl)acetic acid] | – | –
20 | < 10 nM | + (T3-SI ≤ 3×) | < 10 nM | CC(C)c1c(O)ccc(Cc2c(Cl)cc(/C=C/C(=O)O)cc2Cl)c1F [Compound 88, (E)-3-(3,5-dichloro-4-(2-fluoro-4-hydroxy-3-isopropylbenzyl)phenyl)acrylic acid] | – | –
21 | 100 to 1000 nM | ++ (3× < T3-SI ≤ 30×) | > 1000 nM | CC(C)c1cc(Cc2c(Cl)cc(OC(F)(F)C(=O)O)cc2Cl)ccc1O [Compound 82, 2-(3,5-dichloro-4-(4-hydroxy-3-isopropylbenzyl)phenoxy)-2,2-difluoroacetic acid] | – | –
22 | 10 to 100 nM | + (T3-SI ≤ 3×) | 10 to 100 nM | CC(c1ccc(F)cc1)c1c(O)ccc(Cc2c(Cl)cc(CCC(=O)O)cc2Cl)c1F (stereo not drawn) [Compound 18, 3-(3,5-dichloro-4-(2-fluoro-3-(1-(4-fluorophenyl)ethyl)-4-hydroxybenzyl)phenyl)propanoic acid] | – | –
23 | 10 to 100 nM | ++ (3× < T3-SI ≤ 30×) | 10 to 100 nM | CC(C)c1cc(Cc2c(Cl)cc(CCC(=O)O)c(F)c2Cl)ccc1O [Compound 65, 3-(3,5-dichloro-2-fluoro-4-(4-hydroxy-3-isopropylbenzyl)phenyl)propanoic acid] | – | –
24 | 10 to 100 nM | ++ (3× < T3-SI ≤ 30×) | 10 to 100 nM | CC(C)c1cc(Cc2c(Cl)cc(NCC(=O)O)cc2Cl)ccc1O [Compound 20, (3,5-dichloro-4-(4-hydroxy-3-isopropylbenzyl)phenyl)glycine] | – | –

Row | Compound | EC50 (TRβ; [1]) | T3-SI (selectivity index, EC50 (TRα)/EC50 (TRβ)) (TRβ) | EC50 (TRα; [2]) | EC50 (TRβ) | EC50 (TRα)
25 | CC(C)c1c(O)ccc(Cc2c(Cl)cc(CC(=O)O)cc2Cl)c1F [Compound 32, 2-(3,5-dichloro-4-(2-fluoro-4-hydroxy-3-isopropylbenzyl)phenyl)acetic acid] | – | ++ (3× < T3-SI ≤ 30×) | – | < 10 nM | 10 to 100 nM
